Laboratory results: patent US9096560B2, “5-heterocyclylalkyl-3-hydroxy-2-phenylcyclopent-2-enones as herbicides” (Syngenta Limited, priority 2008, dated 2015)

Assays:
Type in all cases: in vivo
[1] = test system: Alopecurus myosuroides (ALOMY); assay: Example A pre-emergence herbicidal test, ALOMY; conditions: rate 500 g/ha, evaluated 19 or 20 days after spraying
Protocol: (§1) Seeds of a variety of test species were sown in standard soil in pots. After cultivation for one day (pre-emergence) or after 10 days cultivation (post-emergence) under controlled conditions in a glasshouse, the plants were sprayed with an aqueous spray solution derived from the formulation of the technical active ingredient in 0.6 ml acetone and 45 ml formulation solution containing 10.6% Emulsogen EL (Registry number 61791-12-6), 42.2% N-methylpyrrolidone, 42.2% dipropylene glycol monomethyl ether (Registry number 34590-94-8) and 0.2% X-77 (Registry number 11097-66-8). The test plants were then grown in a greenhouse under optimum conditions until, 14 or 15 days later for post-emergence and 19 or 20 days for pre-emergence, the test was evaluated (100=total damage to plant; 0=no damage to plant). Alopecurus myosuroides (ALOMY), Avena fatua (AVEFA), Lolium perenne (LOLPE), Setaria faberi (SETFA), Digitaria sanguinalis (DIGSA), Echinochloa crus-galli (ECHCG) Pre-Emergence Activity

[2] = test system: Digitaria sanguinalis (DIGSA); assay: Example A post-emergence herbicidal test, DIGSA; conditions: rate 125 g/ha, evaluated 14 or 15 days after spraying
Protocol: as §1, with “Post-Emergence” for “Pre-Emergence”

[3] = test system: Alopecurus myosuroides (ALOMY); assay: Example A post-emergence herbicidal test, ALOMY; conditions: rate 125 g/ha, evaluated 14 or 15 days after spraying
Protocol: as §1, with “Post-Emergence” for “Pre-Emergence”

Lolium perenne (LOLPE) [4] = assay: Example A pre-emergence herbicidal test, LOLPE; conditions: rate 500 g/ha, evaluated 19 or 20 days after spraying
Protocol: as §1

[5] = test system: Echinochloa crus-galli (ECHCG); assay: Example A post-emergence herbicidal test, ECHCG; conditions: rate 125 g/ha, evaluated 14 or 15 days after spraying
Protocol: as §1, with “Post-Emergence” for “Pre-Emergence”

[6] = test system: Digitaria sanguinalis (DIGSA); assay: Example A pre-emergence herbicidal test, DIGSA; conditions: rate 500 g/ha, evaluated 19 or 20 days after spraying
Protocol: as §1

Setaria faberi (SETFA) [7] = assay: Example A pre-emergence herbicidal test, SETFA; conditions: rate 500 g/ha, evaluated 19 or 20 days after spraying
Protocol: as §1

Avena fatua (AVEFA) [8] = assay: Example A post-emergence herbicidal test, AVEFA; conditions: rate 125 g/ha, evaluated 14 or 15 days after spraying
Protocol: as §1, with “Post-Emergence” for “Pre-Emergence”

Lolium perenne (LOLPE) [9] = assay: Example A post-emergence herbicidal test, LOLPE; conditions: rate 125 g/ha, evaluated 14 or 15 days after spraying
Protocol: as §1, with “Post-Emergence” for “Pre-Emergence”

Avena fatua (AVEFA) [10] = assay: Example A pre-emergence herbicidal test, AVEFA; conditions: rate 500 g/ha, evaluated 19 or 20 days after spraying
Protocol: as §1

[11] = test system: Echinochloa crus-galli (ECHCG); assay: Example A pre-emergence herbicidal test, ECHCG; conditions: rate 500 g/ha, evaluated 19 or 20 days after spraying
Protocol: as §1

Setaria faberi (SETFA) [12] = assay: Example A post-emergence herbicidal test, SETFA; conditions: rate 125 g/ha, evaluated 14 or 15 days after spraying
Protocol: as §1, with “Post-Emergence” for “Pre-Emergence”

## CCc1ccc(-c2ccc(Cl)cc2)cc1C1C(=O)CC(CC2CCOCC2)C1=O (stereo not drawn) [Compound T2]
[1]
  Pre-Emergence Activity ALOMY (100=total damage to plant; 0=no damage to plant): 70
[2]
  Post-Emergence Activity DIGSA (100=total damage to plant; 0=no damage to plant): 100
[3]
  Post-Emergence Activity ALOMY (100=total damage to plant; 0=no damage to plant): 80
Lolium perenne (LOLPE) [4]
  Pre-Emergence Activity LOLPE (100=total damage to plant; 0=no damage to plant): 90
[5]
  Post-Emergence Activity ECHCG (100=total damage to plant; 0=no damage to plant): 100
[6]
  Pre-Emergence Activity DIGSA (100=total damage to plant; 0=no damage to plant): 80
Setaria faberi (SETFA) [7]
  Pre-Emergence Activity SETFA (100=total damage to plant; 0=no damage to plant): 70
Avena fatua (AVEFA) [8]
  Post-Emergence Activity AVEFA (100=total damage to plant; 0=no damage to plant): 40
Lolium perenne (LOLPE) [9]
  Post-Emergence Activity LOLPE (100=total damage to plant; 0=no damage to plant): 20
Avena fatua (AVEFA) [10]
  Pre-Emergence Activity AVEFA (100=total damage to plant; 0=no damage to plant): 10
[11]
  Pre-Emergence Activity ECHCG (100=total damage to plant; 0=no damage to plant): 70
Setaria faberi (SETFA) [12]
  Post-Emergence Activity SETFA (100=total damage to plant; 0=no damage to plant): 100
